Converted amounts (≈) assume the structure as drawn.
Experiments:
[1] = system: Mycobacterium tuberculosis; assay: Antimycobacterial activity against Mycobacterium tuberculosis clinical isolate 1889 by broth dilution method; format: functional
[2] = system: Mycobacterium tuberculosis; assay: Potency index, ratio of isoniazid MIC to compound MIC for Mycobacterium tuberculosis clinical isolate 303; format: functional
[3] = system: Mycobacterium tuberculosis; assay: Potency index, ratio of isoniazid MIC to compound MIC for Mycobacterium tuberculosis clinical isolate 35829; format: functional
[4] = system: Mycobacterium tuberculosis; assay: Antimycobacterial activity against Mycobacterium tuberculosis Erdman ATCC 35801 by broth dilution method; format: functional
[5] = system: Mycobacterium tuberculosis; assay: Antimycobacterial activity against Mycobacterium tuberculosis clinical isolate 35829 by broth dilution method; format: functional
[6] = system: Mycobacterium tuberculosis; assay: Antimycobacterial activity against Mycobacterium tuberculosis clinical isolate 303 by broth dilution method; format: functional
[7] = system: Mycobacterium tuberculosis; assay: Potency index, ratio of isoniazid MIC to compound MIC for Mycobacterium tuberculosis clinical isolate 1889; format: functional
[8] = system: Mycobacterium tuberculosis; assay: Antimycobacterial activity against Mycobacterium tuberculosis infected in C57BL/6 mouse assessed as reduction in colony forming units per lung at 100 mg/kg administered via gavage for 2 days measured last post dose; format: functional
[9] = system: Mycobacterium tuberculosis; assay: Growth inhibition of Mycobacterium tuberculosis H37Rv ATCC 27294 measured after 5 to 8 days; format: functional
[10] = system: Mycobacterium tuberculosis; assay: Antimycobacterial activity against Mycobacterium tuberculosis H37Rv ATCC 27294 measured after 5 to 8 days; format: functional
[11] = system: Mycobacterium tuberculosis; assay: Antimycobacterial activity against Mycobacterium tuberculosis H37Rv after 5 days by microplate alamar blue assay; format: functional; conditions: 120 h
[12] = system: Mycobacterium tuberculosis; assay: Antitubercular activity against Mycobacterium tuberculosis H37Rv; format: functional
[13] = Inhibition of DNA gyrase (unknown origin)
[14] = system: Mycobacterium tuberculosis; assay: Antimycobacterial activity against Mycobacterium tuberculosis H37Rv by NCCLS method; format: functional
[15] = system: Mycobacterium tuberculosis; assay: Potency index, ratio of pyrazinamide MIC to compound MIC for Mycobacterium tuberculosis H37Rv; format: functional
[16] = system: Mycobacterium tuberculosis; assay: Antitubercular activity against Mycobacterium tuberculosis H37Rv after 10 days by tube dilution method; format: functional; conditions: 240 h
[17] = system: Mycobacterium tuberculosis; assay: Antimycobacterial activity against Mycobacterium tuberculosis H37Rv ATCC 27294 at < 0.1 ug/mL by microplate alamar blue assay; format: functional
[18] = system: Mycobacterium tuberculosis; assay: Antimycobacterial activity against Mycobacterium tuberculosis 331/88 after 14 to 21 days by micromethod; format: functional
Mycobacterium avium = assay: Antimycobacterial activity against Mycobacterium avium 330/88 measured after 14 to 21 days by micromethod; format: functional
[19] = system: Mycobacterium tuberculosis; assay: Antimycobacterial activity against Mycobacterium tuberculosis H37Rv after 10 to 12 days by serial dilution method; format: functional
[20] = system: Mycobacterium tuberculosis; assay: Antimycobacterial activity against human sensitive Mycobacterium tuberculosis measured after six weeks; format: functional
[21] = system: Mycobacterium tuberculosis; assay: Antimycobacterial activity against Bovin sensitive Mycobacterium tuberculosis measured after six weeks; format: functional

Structure (SMILES): Cc1ccc(C)n1NC(=O)c1ccccc1
- MIC [1]: 4 to 8 µg/mL (≈ 18.7 to 37.3 µM)
- Ratio [2]: 2
- Ratio [3]: 2
- MIC [4]: 3.2 µg/mL (≈ 14.9 µM)
- MIC [5]: 4 to 8 µg/mL (≈ 18.7 to 37.3 µM)
- MIC [6]: 4 to 8 µg/mL (≈ 18.7 to 37.3 µM)
- Ratio [7]: 2
- Activity [8]: 1.5 log10CFU

Structure (SMILES): CCn1cc(C(=O)O)c(=O)c2cc(F)c(N3CCN(CN4C(=O)/C(=N\NC(=O)c5ccncc5)c5cc(Cl)ccc54)CC3)cc21
- growth inhibition (GI) [9]: 99%
- MIC [10]: 6.25 to 12.5 µg/mL (≈ 9.89 to 19.8 µM)

Structure (SMILES): O=C(NN1C(=O)C(Cl)C1c1ccccc1O)c1ccncc1 (centres undefined)
- MIC [11]: 0.62 µg/mL (≈ 1.95 µM)

Structure (SMILES): COc1cc(C2C(Cl)C(=O)N2NC(=O)c2ccncc2)ccc1O (centres undefined)
- MIC [11]: 0.31 µg/mL (≈ 0.891 µM)

Structure (SMILES): O=C(NN1C(=O)C(Cl)C1c1ccc([N+](=O)[O-])cc1)c1ccncc1 (centres undefined)
- MIC [11]: 5 µg/mL (≈ 14.4 µM)

Structure (SMILES): O=C(NN1C(=O)C(Cl)C1c1cc2cc(Br)ccc2nc1Cl)c1ccncc1 (centres undefined)
- MIC [12]: 12.5 µg/mL

Structure (SMILES): C/C(=N\NC(=O)c1ccncc1)c1ccc(N)cc1
- MIC [12]: 0.23 µM

Structure (SMILES): COc1c(N2CCN(CN3C(=O)/C(=N\NC(=O)c4ccncc4)c4ccccc43)C(C)C2)c(F)cc2c(=O)c(C(=O)O)cn(C3CC3)c12 (centres undefined)
- IC50 [13]: 4 µg/mL (≈ 6.12 µM)
- MIC [12]: 0.2 µg/mL

Structure (SMILES): Cc1c(C(=O)NNC(=O)c2ccncc2)nn(-c2ccc(Cl)cc2Cl)c1-c1ccccc1
- MIC [14]: 25 µg/mL (≈ 53.6 µM)
- Ratio [15]: 4

Structure (SMILES): COc1nc2ccccc2cc1C1C(Cl)C(=O)N1NC(=O)c1ccncc1 (centres undefined)
- MIC [12]: 3.12 to 6.25 µg/mL

Structure (SMILES): CCC(CO)Nc1nc(Cl)nc(NNC(=O)c2ccncc2)n1 (centres undefined)
- MIC [16]: 20 µg/mL (≈ 59.2 µM)

Structure (SMILES): C[C@]12CC/C(=N\NC(=O)c3ccncc3)C[C@@H]1CC[C@@H]1[C@@H]2CC[C@]2(C)/C(=N/NC(=O)c3ccncc3)CC[C@@H]12
- inhibition (INH) [17]: >95%

Structure (SMILES): CCCCCCCCc1ccc(NC(=O)NNC(=O)c2ccncc2)cc1
- MIC [18]: 1 to 2 µM (≈ 0.368 to 0.737 µg/mL)
- MIC (Mycobacterium avium): 1 to 2 µM (≈ 0.368 to 0.737 µg/mL)

Structure (SMILES): C[C@]12CC[C@H]3[C@@](CC[C@@H]4[C@]3(C)CCC[C@@]4(C)C(=O)O)(CC1=O)C2
- MIC [19]: 50 µg/mL (≈ 157 µM)

Structure (SMILES): COc1ccc(C2C(Cl)C(=O)N2NC(=O)c2ccncc2)cc1 (centres undefined)
- MIC [11]: 0.31 to 5 µg/mL (≈ 0.934 to 15.1 µM)

Structure (SMILES): C=CCN1C(=O)/C(=N\NC(=O)c2ccncc2)c2ccccc21
- MIC [20]: 2.7 to 3.5 µg/mL (≈ 8.81 to 11.4 µM)
- MIC [21]: 2.7 to 3.5 µg/mL (≈ 8.81 to 11.4 µM)

Structure (SMILES): C=C1C[C@]23CC[C@@H]4[C@](C)(CCC[C@@]4(C)C(=O)NNc4ccncc4)[C@H]2CC[C@]1(O[C@@H]1O[C@H](COC(C)=O)[C@@H](OC(C)=O)[C@H](OC(C)=O)[C@H]1O[C@@H]1O[C@H](COC(C)=O)[C@@H](OC(C)=O)[C@H](OC(C)=O)[C@H]1O)C3
- MIC [19]: 5 µg/mL (≈ 5.07 µM)

Structure (SMILES): COc1nc2ccc(Br)cc2cc1C1C(Cl)C(=O)N1NC(=O)c1ccncc1 (centres undefined)
- MIC [12]: 3.12 to 6.25 µg/mL

Structure (SMILES): O=C(NN1C(=O)C(Cl)C1c1ccco1)c1ccncc1 (centres undefined)
- MIC [11]: 1.25 µg/mL (≈ 4.29 µM)

Structure (SMILES): O=C(NN1C(=O)C(Cl)C1c1cc2cc(Cl)ccc2nc1Cl)c1ccncc1 (centres undefined)
- MIC [12]: 12.5 µg/mL

Structure (SMILES): O=C(CNNC(=O)c1ccncc1)COc1ccc(/C=C2\SC(=O)NC2=O)cc1
- MIC [12]: 50 to 100 µg/mL

Structure (SMILES): C=C1C[C@]23CC[C@@H]4[C@](C)(CCC[C@@]4(C)C(=O)O[C@@H]4O[C@H](CO)[C@@H](O)[C@H](O)[C@H]4O)[C@H]2CC[C@]1(O[C@@H]1O[C@H](CO)[C@@H](O)[C@H](O)[C@H]1O[C@@H]1O[C@H](CO)[C@@H](O)[C@H](O)[C@H]1O)C3
- MIC [19]: 7.5 µg/mL (≈ 9.32 µM)

— ChEMBL document CHEMBL4052616, “Isoniazid derivatives and their anti-tubercular activity” (Eur J Med Chem, 2017)
